Earlier results in patent publication US20110082867A1, “SYSTEM, METHOD, AND COMPUTER PROGRAM PRODUCT FOR ANALYZING DRUG INTERACTIONS” (priority 2009, published 2011).

Tests used:
CYP 2C9 = CYP 2C9 (Homo sapiens, UniProt P11712); conditions: Gene CYP 2C9; involvement strength and type
CYP 2D6 = CYP 2D6 (Homo sapiens, UniProt P10635); conditions: Gene CYP 2D6; involvement strength and type
CYP 1A2 = biological target: T1, CYP 1A2 (Homo sapiens, UniProt P05177); conditions: Gene CYP 1A2; involvement strength and type
T1 sequence (P05177 1-516): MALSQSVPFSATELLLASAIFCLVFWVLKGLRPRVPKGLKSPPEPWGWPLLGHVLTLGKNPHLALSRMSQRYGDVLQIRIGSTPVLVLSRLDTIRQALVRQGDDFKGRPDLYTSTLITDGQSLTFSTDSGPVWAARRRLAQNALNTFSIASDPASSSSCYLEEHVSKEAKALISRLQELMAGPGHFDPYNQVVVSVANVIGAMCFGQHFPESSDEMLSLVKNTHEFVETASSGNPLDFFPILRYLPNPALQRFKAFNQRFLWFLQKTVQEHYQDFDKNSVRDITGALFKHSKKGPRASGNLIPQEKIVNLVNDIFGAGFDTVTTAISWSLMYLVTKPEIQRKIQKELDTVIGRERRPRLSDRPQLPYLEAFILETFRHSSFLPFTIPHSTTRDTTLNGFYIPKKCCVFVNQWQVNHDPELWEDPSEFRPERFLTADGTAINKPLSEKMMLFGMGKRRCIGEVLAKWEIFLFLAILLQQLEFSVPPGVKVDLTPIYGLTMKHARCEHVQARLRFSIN

CYP 3A4 = CYP 3A4 (Homo sapiens, UniProt P08684); conditions: Gene CYP 3A4; involvement strength and type
Chain of CYP 3A4 (P08684 whole entry): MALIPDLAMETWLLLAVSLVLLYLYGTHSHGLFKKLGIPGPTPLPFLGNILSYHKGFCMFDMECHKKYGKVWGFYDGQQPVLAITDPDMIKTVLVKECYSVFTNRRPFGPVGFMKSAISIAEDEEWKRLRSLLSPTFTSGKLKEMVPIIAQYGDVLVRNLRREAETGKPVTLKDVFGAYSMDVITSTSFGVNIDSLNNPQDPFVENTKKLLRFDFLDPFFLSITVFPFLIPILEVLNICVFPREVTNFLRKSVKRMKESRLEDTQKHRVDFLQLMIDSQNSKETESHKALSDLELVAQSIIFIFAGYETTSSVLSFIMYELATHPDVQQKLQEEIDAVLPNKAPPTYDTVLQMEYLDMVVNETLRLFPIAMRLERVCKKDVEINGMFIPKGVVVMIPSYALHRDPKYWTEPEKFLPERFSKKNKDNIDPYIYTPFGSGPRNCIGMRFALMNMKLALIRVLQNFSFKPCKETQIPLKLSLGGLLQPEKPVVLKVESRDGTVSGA

CYP 2A6 = biological target: T2, CYP 2A6 (Homo sapiens, UniProt P11509); conditions: Gene CYP 2A6; involvement strength and type
T2 sequence (P11509 1-494): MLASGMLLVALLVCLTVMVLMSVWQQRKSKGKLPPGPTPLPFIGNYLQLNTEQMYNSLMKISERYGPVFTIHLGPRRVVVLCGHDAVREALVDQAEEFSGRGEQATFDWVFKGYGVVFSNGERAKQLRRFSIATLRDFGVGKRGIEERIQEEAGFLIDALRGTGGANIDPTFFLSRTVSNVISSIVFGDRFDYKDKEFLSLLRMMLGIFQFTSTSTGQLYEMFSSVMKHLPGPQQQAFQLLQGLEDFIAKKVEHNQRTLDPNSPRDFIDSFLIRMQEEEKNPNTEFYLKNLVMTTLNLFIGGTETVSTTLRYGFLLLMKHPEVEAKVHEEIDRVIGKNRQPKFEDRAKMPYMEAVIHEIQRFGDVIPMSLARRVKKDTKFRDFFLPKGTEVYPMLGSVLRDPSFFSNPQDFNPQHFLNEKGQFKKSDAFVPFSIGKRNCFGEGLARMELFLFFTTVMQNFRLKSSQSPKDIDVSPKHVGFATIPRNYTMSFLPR

CYP 2E1 = CYP 2E1 (Homo sapiens, UniProt P05181); conditions: Gene CYP 2E1; involvement strength and type
Chain of CYP 2E1 (P05181 whole entry): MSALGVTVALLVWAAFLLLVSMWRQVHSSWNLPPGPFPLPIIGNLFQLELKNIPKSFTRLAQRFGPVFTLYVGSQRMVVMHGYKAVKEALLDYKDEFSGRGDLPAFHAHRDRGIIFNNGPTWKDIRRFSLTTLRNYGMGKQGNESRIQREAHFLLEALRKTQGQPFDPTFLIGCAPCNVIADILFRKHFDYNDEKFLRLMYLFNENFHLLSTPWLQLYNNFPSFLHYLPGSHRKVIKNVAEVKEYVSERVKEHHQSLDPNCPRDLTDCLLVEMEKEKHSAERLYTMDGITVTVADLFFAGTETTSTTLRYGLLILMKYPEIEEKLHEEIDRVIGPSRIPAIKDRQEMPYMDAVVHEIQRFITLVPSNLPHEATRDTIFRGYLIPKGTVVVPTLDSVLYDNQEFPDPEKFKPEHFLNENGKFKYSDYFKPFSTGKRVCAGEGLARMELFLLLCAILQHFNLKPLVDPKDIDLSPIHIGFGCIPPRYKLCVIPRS

Chain of CYP 2D6 (P10635 whole entry): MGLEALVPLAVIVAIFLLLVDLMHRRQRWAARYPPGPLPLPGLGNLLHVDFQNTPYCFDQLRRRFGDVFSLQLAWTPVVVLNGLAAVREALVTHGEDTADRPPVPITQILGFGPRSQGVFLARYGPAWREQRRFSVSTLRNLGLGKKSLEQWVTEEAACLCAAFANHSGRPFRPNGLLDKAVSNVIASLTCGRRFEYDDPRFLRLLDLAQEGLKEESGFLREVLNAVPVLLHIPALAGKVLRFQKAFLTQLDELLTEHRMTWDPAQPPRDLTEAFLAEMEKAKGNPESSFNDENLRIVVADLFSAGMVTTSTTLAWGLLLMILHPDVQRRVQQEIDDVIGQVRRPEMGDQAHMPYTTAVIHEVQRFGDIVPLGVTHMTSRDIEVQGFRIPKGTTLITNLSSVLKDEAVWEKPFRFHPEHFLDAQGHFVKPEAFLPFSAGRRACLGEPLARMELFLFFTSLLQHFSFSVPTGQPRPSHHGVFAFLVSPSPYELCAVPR
Chain of CYP 2C9 (P11712 whole entry): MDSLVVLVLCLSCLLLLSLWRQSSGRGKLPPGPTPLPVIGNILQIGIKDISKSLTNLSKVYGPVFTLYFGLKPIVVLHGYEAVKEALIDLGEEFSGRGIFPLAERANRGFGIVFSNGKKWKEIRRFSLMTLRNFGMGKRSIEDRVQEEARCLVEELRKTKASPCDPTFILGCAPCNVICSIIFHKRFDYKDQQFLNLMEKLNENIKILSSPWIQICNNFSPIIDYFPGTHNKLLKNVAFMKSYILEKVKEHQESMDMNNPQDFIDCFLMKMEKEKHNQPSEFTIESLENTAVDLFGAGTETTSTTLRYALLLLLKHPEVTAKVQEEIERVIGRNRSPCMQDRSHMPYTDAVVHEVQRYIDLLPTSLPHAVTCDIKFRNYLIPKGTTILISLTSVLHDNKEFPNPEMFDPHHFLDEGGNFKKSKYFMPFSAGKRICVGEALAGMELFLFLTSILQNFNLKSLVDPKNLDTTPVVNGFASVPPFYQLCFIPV

Row | SMILES | Drug Interaction (CYP 2C9) | Drug Interaction (CYP 2D6) | Drug Interaction (CYP 1A2) | Drug Interaction (CYP 3A4) | Drug Interaction (CYP 2A6) | Drug Interaction (CYP 2E1)
1 | CC(=O)CC(c1ccccc1)c1c(O)c2ccccc2oc1=O (stereo not shown) [Warfarin] | Major Substrate |  |  |  |  | 
2 | COc1ccc2c3c1O[C@H]1[C@@H](O)C=C[C@H]4[C@@H](C2)N(C)CC[C@@]341 [Codeine] |  | Major Substrate |  |  |  | 
3 | CC(=O)Nc1ccc(O)cc1 [Acetaminophen] |  | Minor Substrate | Minor Substrate | Minor Substrate | Minor Substrate | Major Substrate
